Tests used:
Dopamine D2 = experiment: Radioligand binding, [3H]Spiperone; conditions: Dopamine D2, [3H]Spiperone, duplicate
Method: (§1) Table S1. Inhibition effect of CHIBA-3007 (1 µM) on radioligand binding to various receptors
(§2) Test substance concentration: 1 µM, Positive substance concentration : 10 µM
(§3) Data are expressed as the mean values of duplicate samples.
(§4) The % inhibition was calculated from “100 – binding ratio”.
(§5) Binding ratio: [(B - N) / (B0 - N)] × 100 (%) B: Bound radioactivity in the presence of test substance and positive substance (individual value), B0: Total bound radioactivity in the absence of test substance and positive substance (mean value), N: Non-specific bound radioactivity (mean value)

Histamine H2 = experiment: Radioligand binding, [3H]Cimetidine; conditions: Histamine H2, [3H]Cimetidine, duplicate
Method: as §1, §2, §3, §4, §5

[1] = system: α1-Adrenergic (Non-selective); experiment: Radioligand binding, [3H]Prazosin; conditions: duplicate
Method: as §1, §2, §3, §4, §5

Glutamate (Kainate) = experiment: Radioligand binding, [3H]Kainic acid; conditions: duplicate
Method: as §1, §2, §3, §4, §5

Serotonin 5-HT1A = experiment: Radioligand binding, [3H]8-OH DPAT; conditions: duplicate
Method: as §1, §2, §3, §4, §5

Histamine H1 (Central) = experiment: Radioligand binding, [3H]Pyrilamine; conditions: duplicate
Method: as §1, §2, §3, §4, §5

GABA -A (Agonist site) = experiment: Radioligand binding, [3H]Muscimol; conditions: duplicate
Method: as §1, §2, §3, §4, §5

[2] = 28 standard target binding profile; conditions: 1 µM
Method: as §1, §2, §3, §4, §5

[3] = system: Glutamate (NMDA glycine site); experiment: Radioligand binding, [3H]MDL105519; conditions: [3H]MDL105519, 1 µM, duplicate
Method: as §1, §2, §3, §4, §5

[4] = system: Glutamate (NMDA agonist site); experiment: Radioligand binding, [3H]CGP-39653; conditions: [3H]CGP-39653, 1 µM, duplicate
Method: as §1, §2, §3, §4, §5

[5] = system: β-Adrenergic (Non-selective); experiment: Radioligand binding, [3H]DHA; conditions: duplicate
Method: as §1, §2, §3, §4, §5

Histamine H3 = experiment: Radioligand binding, [3H]N-methyl histamine; conditions: Histamine H3, [3H]N-methyl histamine, duplicate
Method: as §1, §2, §3, §4, §5

GABA- A (BZ central) = experiment: Radioligand binding, [3H]Flunitrazepam; conditions: duplicate
Method: as §1, §2, §3, §4, §5

Muscarinic M1 = experiment: Radioligand binding, [3H]Pirenzepine; conditions: Muscarinic M1, [3H]Pirenzepine, duplicate
Method: as §1, §2, §3, §4, §5

[6] = system: Glutamate (Non-selective); experiment: Radioligand binding, [3H]Glutamic acid; conditions: duplicate
Method: as §1, §2, §3, §4, §5

Serotonin 5-HT3 (Human) = experiment: Radioligand binding, [3H]GR65630; conditions: [3H]GR65630, 1 µM, duplicate
Method: as §1, §2, §3, §4, §5

Adenosine A2 = experiment: Radioligand binding, [3H]CGS21680; conditions: Adenosine A2, [3H]CGS21680, 1 µM, duplicate
Method: as §1, §2, §3, §4, §5

GlyT-1 [7] = biological target: T1, GlyT-1 (Rattus norvegicus, UniProt P28572); experiment: Drug inhibition of [3H]CHIBA-3007 binding to rat brain membranes; conditions: [3H]CHIBA-3007 (1 nM), 120 min room temperature, mean ± S.E.M., n=3
T1 construct: the tissues of whole brains or each specific brain region were homogenized; from tissue; host or cells: rat brain (whole brain or dissected regions; male Crl:CD (SD) rats)
T1 sequence (P28572 1-638): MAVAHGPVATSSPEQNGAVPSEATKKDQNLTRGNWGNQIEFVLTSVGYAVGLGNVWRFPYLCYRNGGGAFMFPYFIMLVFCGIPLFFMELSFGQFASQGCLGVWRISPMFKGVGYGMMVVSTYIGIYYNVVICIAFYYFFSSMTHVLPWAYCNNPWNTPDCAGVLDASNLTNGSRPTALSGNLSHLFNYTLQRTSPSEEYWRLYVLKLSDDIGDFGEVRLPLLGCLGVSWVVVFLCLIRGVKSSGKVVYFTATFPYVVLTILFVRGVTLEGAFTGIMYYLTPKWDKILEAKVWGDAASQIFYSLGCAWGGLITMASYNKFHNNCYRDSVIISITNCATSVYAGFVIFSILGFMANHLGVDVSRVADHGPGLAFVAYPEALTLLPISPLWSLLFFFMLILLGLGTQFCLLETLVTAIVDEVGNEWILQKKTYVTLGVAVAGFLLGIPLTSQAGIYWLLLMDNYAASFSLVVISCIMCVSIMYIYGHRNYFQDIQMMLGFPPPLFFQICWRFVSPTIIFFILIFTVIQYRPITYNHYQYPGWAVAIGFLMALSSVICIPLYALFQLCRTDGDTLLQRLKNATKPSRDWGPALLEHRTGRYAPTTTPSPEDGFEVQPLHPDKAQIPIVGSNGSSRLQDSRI
Method: The supernatant was discarded and the pellet was re-suspended, homogenized and centrifuged as above. The membrane pellet was washed and re-suspended in ice-cold HEPES buffer and was then centrifuged three times. The final pellet was re-suspended in 15 volumes of the buffer (120 mM NaCl, 2 mM KCl, 1 mM CaCl2, 1 mM MgCl2 10 mM HEPES, pH 7.5 at room temperature).
The binding reaction was terminated by rapid vacuum filtration onto Whatman GF/B glass filters pretreated with 0.5% polyethyleneimine (Sigma-Aldrich Co.) using a 24-channel cell harvester (Brandell, Gaithersburg, MD). The filters were washed with 5 mL of ice-cold assay buffer 3 times, and placed in vials with 4 mL scintillation cocktail. The radioactivity trapped by the filters was determined using a liquid scintillation counter (Beckman LS-6500; Beckman Coulter K.K., Tokyo, Japan).
(§6) The data are shown as the mean ± standard error of the mean (S.E.M.). The dissociation constant (Kd) and maximal binding (Bmax) values from saturation binding and the IC50 values from binding displacement by each drug were determined using the program GraphPad Prism (GraphPad Software, San Diego, CA). […] Correlation was analyzed by Pearson's Correlation Coefficient (PASW Statistics 19, Tokyo, Japan). Significance was set at p<0.05.

Sigma (Non-selective) = experiment: Radioligand binding, [3H]DTG; conditions: duplicate
Method: as §1, §2, §3, §4, §5

GABA -B = experiment: Radioligand binding, [3H]GABA; conditions: duplicate
Method: as §1, §2, §3, §4, §5

Glutamate (AMPA) = experiment: Radioligand binding, [3H]AMPA; conditions: duplicate
Method: as §1, §2, §3, §4, §5

GlyT-1 [8] = biological target: T1, GlyT-1; experiment: Inhibition of [14C]glycine uptake in rat brain membranes; type: biochemical
Method: The homogenate was centrifuged at 1,000 g for 10 min to remove nuclei and debris, and then the supernatant was centrifuged again at 20,000 g for 20 min (synaptosomal P2 fraction). The pellet was washed and re-suspended in ice-cold 0.32 M sucrose, buffered with 10 mM HEPES (pH 7.4) and centrifuged again at 20,000 g for 20 min (washed P2 fraction). The pellet was re-suspended in 10 volumes of assay buffer with the following composition: 10 mM HEPES buffer (pH 7.4) containing 140 mM NaCl, 5.5 mM KCl, 1.8 mM CaCl2, 0.8 mM MgSO4, 5 mM glucose and 5 mM L-alanine (HB). The protein concentrations were measured by using a DC protein assay kit (Bio-Rad Laboratories Inc., Tokyo, Japan).
Non-specific uptake was estimated in the presence of 30 µM SSR504734. […] The filters were washed by buffer, and the radioactivity trapped by the filters was determined using a liquid scintillation counter as described above.
as §6

Adenosine A1 = experiment: Radioligand binding, [3H]DPCPX; conditions: Adenosine A1, [3H]DPCPX, duplicate
Method: as §1, §2, §3, §4, §5

Muscarinic M2 = experiment: Radioligand binding, [3H]AF-DX-384; conditions: Muscarinic M2, [3H]AF-DX-384, 1 µM, duplicate
Method: as §1, §2, §3, §4, §5

Nicotinic Ni = experiment: Radioligand binding, [3H]Nicotine; conditions: duplicate
Method: as §1, §2, §3, §4, §5

[9] = system: Glutamate (NMDA phencyclidine site); experiment: Radioligand binding, [3H]MK-801; conditions: [3H]MK-801, 1 µM, duplicate
Method: as §1, §2, §3, §4, §5

Serotonin 5-HT2A = experiment: Radioligand binding, [3H]Ketanserin; conditions: duplicate
Method: as §1, §2, §3, §4, §5

[10] = system: α2-Adrenergic (Non-selective); experiment: Radioligand binding, [3H]RX821002; conditions: [3H]RX821002, 1 µM, duplicate
Method: as §1, §2, §3, §4, §5

Opiate (Non-selective) = experiment: Radioligand binding, [3H]Naloxone; conditions: duplicate
Method: as §1, §2, §3, §4, §5

[11] = system: Glycine (Strychnine sensitive); experiment: Radioligand binding, [3H]Strychnine; conditions: duplicate
Method: as §1, §2, §3, §4, §5

Dopamine D1 = experiment: Radioligand binding, [3H]SCH23390; conditions: Dopamine D1, [3H]SCH23390, 1 µM, duplicate
Method: as §1, §2, §3, §4, §5

CN1CCCC[C@@H]1[C@@H](NC(=O)c1nccc(C(F)(F)F)c1Cl)c1ccsc1 [CHIBA-3007, 3-Chloro-N-((S)-((R)-1-methylpiperidin-2-yl)(thiophen-3-yl)methyl)-4-(trifluoromethyl)picolinamide]
% Inhibition (1 µM) (Dopamine D2): 1.00% | % Inhibition (1 µM) (Histamine H2): 3.80% | % Inhibition (1 µM) [1]: 1.13% | % Inhibition (1 µM) (Glutamate (Kainate)): 1.50% | % Inhibition (1 µM) (Serotonin 5-HT1A): 35.22% | % Inhibition (1 µM) (Histamine H1 (Central)): 1.83% | % Inhibition (1 µM) (GABA -A (Agonist site)): 0.20% | Inhibition in 28 standard target binding profile [2]: lower than 50% | % Inhibition (1 µM) [3]: 4.02% | % Inhibition (1 µM) [4]: 8.17% | % Inhibition (1 µM) [5]: 8.39% | % Inhibition (1 µM) (Histamine H3): 0.00% | % Inhibition (1 µM) (GABA- A (BZ central)): 2.78% | % Inhibition (1 µM) (Muscarinic M1): 8.35% | % Inhibition (1 µM) [6]: 1.91% | % Inhibition (1 µM) (Serotonin 5-HT3 (Human)): 7.36% | % Inhibition (1 µM) (Adenosine A2): 5.86% | Ki (GlyT-1 [7]): 2.8 ± 0.17 nM | % Inhibition (1 µM) (Sigma (Non-selective)): 24.20% | % Inhibition (1 µM) (GABA -B): 8.19% | % Inhibition (1 µM) (Glutamate (AMPA)): 3.27% | IC50 (GlyT-1 [8]): 21.4 ± 8.4 nM | % Inhibition (1 µM) (Adenosine A1): 2.12% | % Inhibition (1 µM) (Muscarinic M2): 16.31% | % Inhibition (1 µM) (Nicotinic Ni): 2.10% | % Inhibition (1 µM) [9]: 3.80% | % Inhibition (1 µM) (Serotonin 5-HT2A): 30.56% | % Inhibition (1 µM) [10]: 20.98% | % Inhibition (1 µM) (Opiate (Non-selective)): 43.44% | % Inhibition (1 µM) [11]: 0.00% | % Inhibition (1 µM) (Dopamine D1): 2.32%

Reference: paper PMC3121759 (PLoS ONE, 2011)
